Data taken from patent publication US20250179055A1, “Substituted 2-(pyrrolidine-3-yl)acetic acid derivative, preparation method and use thereof” (INNOVSTONE THERAPEUTICS LIMITED, priority 2023, published 2025).

These molecules were tested against Lp(a) assembly in HepG2 cells overexpressing ApoA protein (Homo sapiens (Human), UniProt P08519) (assay: ELISA assay on screening Lp(a) assembly inhibition). Conditions: HepG2 cells overexpressing ApoA protein, 24 h, ELISA of supernatant.
Sequence of Lp(a) assembly in HepG2 cells overexpressing ApoA protein (P08519 20-2040): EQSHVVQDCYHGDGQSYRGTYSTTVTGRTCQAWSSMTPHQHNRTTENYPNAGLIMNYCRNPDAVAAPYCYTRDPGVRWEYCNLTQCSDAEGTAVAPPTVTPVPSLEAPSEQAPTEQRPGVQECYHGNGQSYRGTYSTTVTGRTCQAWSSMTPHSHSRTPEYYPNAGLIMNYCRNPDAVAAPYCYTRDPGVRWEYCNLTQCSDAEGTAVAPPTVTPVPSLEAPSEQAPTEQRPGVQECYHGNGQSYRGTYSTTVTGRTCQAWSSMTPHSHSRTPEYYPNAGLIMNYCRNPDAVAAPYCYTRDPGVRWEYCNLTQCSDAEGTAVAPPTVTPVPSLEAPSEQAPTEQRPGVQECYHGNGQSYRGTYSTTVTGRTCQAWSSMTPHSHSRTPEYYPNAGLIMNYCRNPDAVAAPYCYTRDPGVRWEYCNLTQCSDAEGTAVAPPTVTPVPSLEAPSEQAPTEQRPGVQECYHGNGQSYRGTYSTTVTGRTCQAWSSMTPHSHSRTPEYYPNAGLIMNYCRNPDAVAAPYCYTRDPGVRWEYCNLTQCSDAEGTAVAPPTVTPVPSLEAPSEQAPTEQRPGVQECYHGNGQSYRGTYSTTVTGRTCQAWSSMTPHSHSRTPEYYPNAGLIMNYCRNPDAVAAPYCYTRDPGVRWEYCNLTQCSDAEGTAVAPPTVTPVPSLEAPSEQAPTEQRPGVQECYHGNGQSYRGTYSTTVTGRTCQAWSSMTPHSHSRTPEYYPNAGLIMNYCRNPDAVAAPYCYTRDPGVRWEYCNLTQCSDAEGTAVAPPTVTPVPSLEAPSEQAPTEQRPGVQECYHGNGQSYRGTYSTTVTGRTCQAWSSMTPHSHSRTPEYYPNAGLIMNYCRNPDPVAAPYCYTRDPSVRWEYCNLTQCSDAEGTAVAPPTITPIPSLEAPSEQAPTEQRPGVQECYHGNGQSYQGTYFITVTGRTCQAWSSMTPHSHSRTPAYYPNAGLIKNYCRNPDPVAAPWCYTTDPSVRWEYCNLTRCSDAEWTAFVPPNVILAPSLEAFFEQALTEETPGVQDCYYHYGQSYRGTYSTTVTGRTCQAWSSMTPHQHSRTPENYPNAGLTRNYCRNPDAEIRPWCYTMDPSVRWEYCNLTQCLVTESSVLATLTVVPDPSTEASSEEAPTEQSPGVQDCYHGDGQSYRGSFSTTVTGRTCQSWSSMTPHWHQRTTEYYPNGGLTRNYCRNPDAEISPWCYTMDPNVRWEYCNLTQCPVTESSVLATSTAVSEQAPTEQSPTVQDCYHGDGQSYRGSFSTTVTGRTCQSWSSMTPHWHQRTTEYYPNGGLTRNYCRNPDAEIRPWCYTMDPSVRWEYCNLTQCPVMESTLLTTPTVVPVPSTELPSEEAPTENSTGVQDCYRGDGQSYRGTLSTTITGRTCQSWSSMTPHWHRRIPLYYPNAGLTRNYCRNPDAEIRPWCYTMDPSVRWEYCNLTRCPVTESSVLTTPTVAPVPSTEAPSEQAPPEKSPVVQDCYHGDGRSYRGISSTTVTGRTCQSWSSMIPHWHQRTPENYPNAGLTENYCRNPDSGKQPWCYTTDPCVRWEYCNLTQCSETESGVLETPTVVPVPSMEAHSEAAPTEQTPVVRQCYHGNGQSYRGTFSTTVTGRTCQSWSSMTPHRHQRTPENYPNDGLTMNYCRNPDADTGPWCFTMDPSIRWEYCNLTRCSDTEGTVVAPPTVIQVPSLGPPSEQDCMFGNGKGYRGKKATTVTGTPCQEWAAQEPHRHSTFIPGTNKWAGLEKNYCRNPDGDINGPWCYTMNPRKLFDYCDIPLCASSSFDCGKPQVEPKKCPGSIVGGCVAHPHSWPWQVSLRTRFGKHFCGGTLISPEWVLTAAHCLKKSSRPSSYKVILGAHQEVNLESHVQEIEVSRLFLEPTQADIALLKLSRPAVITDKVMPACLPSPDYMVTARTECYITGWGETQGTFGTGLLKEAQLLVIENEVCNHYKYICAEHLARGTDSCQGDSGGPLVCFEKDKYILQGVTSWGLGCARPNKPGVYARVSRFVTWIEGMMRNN
Format: cell-based
Description: Test Example 1 and Methods of ELISA Assay on Screening Lp(a) Assembly Inhibition
• 1) Preheated the culture media, DPBS, and pancreatin in a 37° C. water bath in advance. • 2) Digested cells with pancreatin, transferred the cell suspension to a 15 mL centrifuge tube, and centrifuged at 1000 rpm for 5 min. • 3) Resuspended the cells with culture media and transferred the cell suspension to a new T75 cell culture flask. • 4) Cultured at 37° C. in a 5% CO2 incubator.
• 1) Seeded HepG2 cells overexpressing of ApoA protein into a 96-well plate at 100 μL per well and incubated overnight for attachment. • 2) Replaced with fresh culture media the next day, then added diluted compounds, and cultured the cell plate in a 5% CO2, 37° C. incubator for 24 h.
• 1) Added 10 μL of 1.5 M EACA to each well. • 2) Centrifuged at 1000 rpm for 1 min, and transferred 100 μL of cell culture supernatant to a pre-coated ELISA plate.
• 1) Added 100 μL of capture antibody to each well of a pre-coated ELISA plate and incubated overnight at 25° C. • 2) Added 300 μL of washing solution to each well and washed 5 times for 1 min each time. • 3) Added 100 μL of blocking solution to each well and incubated at 25° C. for 2 h. • 4) Added 300 μL of washing solution to each well and washed 5 times for 1 min each time. • 5) Added 100 μL of sample to each well and incubated at 25° C. for 1 h. • 6) Added 300 μL of washing solution to each well and washed 5 times for 1 min each time. • 7) Added 100 μL of detection antibody to each well and incubated at 25° C. for 1 h. • 8) Added 300 μL of washing solution to each well and washed 5 times for 1 min each time. • 9) Added 100 μL substrate solution (Color Reagent A: Color Reagent B, 1:1) to each well and incubated for 20 min at 25° C. in the dark. • 10) Added […] of stop solution to each well, gently blowed and sucked several times with the pipette tip, and read within 5 min.
[formula] • X: cpd concentration • Y: inhibition % • Top and Bottom: Plateaus in same units as Y • log IC50: same log units as X • HillSlope: Slope factor or Hill slope
Work on `O=C(O)C(Cc1cccc(C(=O)N(CCOc2cccc(C[C@H](C(=O)O)[C@H]3CCNC3)c2)Cc2cccc(C[C@H](C(=O)O)[C@H]3CCNC3)c2)c1)C1CCNC1` (stereo in doubt) [Compound 97, (S)-3-(3-((3-((S)-2-carboxy-2-((R)-pyrrolidin-3-yl)ethyl)-N-(2-(3-((S)-2-carboxy-2-((R)-pyrrolidin-3-yl)ethyl)phenoxy)ethyl)benzamido)methyl)phenyl)-2-((R)-pyrrolidin-3-yl)propanoic acid] yielded an IC50 of 1.46 nM. Molecule `O=C(Cc1cccc(CC(C(=O)O)C2CCNC2)c1)NCc1cccc(C[C@H](C(=O)O)[C@H]2CCNC2)c1` (stereo in doubt) [Compound 143, (S)-3-(3-(2-((3-((S)-2-carboxy-2-((R)-pyrrolidin-3-yl)ethyl)benzyl)amino)-2-oxoethyl)phenyl)-2-((R)-pyrrolidin-3-yl)propanoic acid] has an IC50 of 3.81 nM. Work on `N[C@@H](CCCCN(Cc1cc(F)cc(C[C@H](C(=O)O)[C@H]2CCNC2)c1)Cc1cc(F)cc(C[C@H](C(=O)O)[C@H]2CCNC2)c1)C(=O)O` [Compound 5, (2S,2′S)-3,3′-(((((S)-5-amino-5-carboxypentyl)azanediyl)bis(methylene))bis(5-fluoro-3,1-phenylene))bis(2-((R)-pyrrolidin-3-yl)propanoic acid)] yielded an IC50 of 4.12 nM. For `O=C(O)[C@@H](Cc1cccc(CN(Cc2cccc(C[C@H](C(=O)O)[C@H]3CCNC3)c2)Cc2coc3ccc(C[C@H](C(=O)O)[C@H]4CCNC4)cc23)c1)[C@H]1CCNC1` [Compound 6, (2S,2′S)-3,3′-(((((5-((S)-2-carboxy-2-((R)-pyrrolidin-3-yl)ethyl)benzofuran-3-yl)methyl)azanediyl)bis(methylene))bis(3,1-phenylene))bis(2-((R)-pyrrolidin-3-yl)propanoic acid)], the IC50 was 1.13 nM. `O=C(O)[C@@H](Cc1cccc(CN(Cc2cccc(C[C@H](C(=O)O)[C@H]3CCNC3)c2)Cc2cc3ccc(C[C@H](C(=O)O)[C@H]4CCNC4)cc3s2)c1)[C@H]1CCNC1` [Compound 11, (2S,2′S)-3,3′-(((((6-((S)-2-carboxy-2-((R)-pyrrolidin-3-yl)ethyl)benzo[b]thiophen-2-yl)methyl)azanediyl)bis(methylene))bis(3,1-phenylene))bis(2-((R)-pyrrolidin-3-yl)propanoic acid)] gave an IC50 of 0.89 nM. With `O=C(O)[C@@H](Cc1cccc(CN(Cc2cccc(C[C@H](C(=O)O)[C@H]3CCNC3)c2)C(=O)c2cc(F)cc(C[C@H](C(=O)O)[C@H]3CCNC3)c2)c1)[C@H]1CCNC1` [Compound 12, (2S,2′S)-3,3′-((((3-((S)-2-carboxy-2-((R)-pyrrolidin-3-yl)ethyl)-5-fluorobenzoyl)azanediyl)bis(methylene))bis(3,1-phenylene))bis(2-((R)-pyrrolidin-3-yl)propanoic acid)] the IC50 was 1.17 nM. In the case of `O=C(O)[C@@H](Cc1ccc2occ(CN(Cc3coc4ccc(C[C@H](C(=O)O)[C@H]5CCNC5)cc34)Cc3coc4ccc(C[C@H](C(=O)O)[C@H]5CCNC5)cc34)c2c1)[C@H]1CCNC1` [Compound 47, (2S,2′S,2″S)-3,3′,3″-((nitrilotris(methylene))tris(benzofuran-3,5-diyl))tris(2-((R)-pyrrolidin-3-yl)propanoic acid)], the IC50 is reported as 1.03 nM. With `O=C(O)[C@@H](Cc1ccc2scc(CN(Cc3csc4ccc(C[C@H](C(=O)O)[C@H]5CCNC5)cc34)Cc3csc4ccc(C[C@H](C(=O)O)[C@H]5CCNC5)cc34)c2c1)[C@H]1CCNC1` [Compound 49, (2S,2′S,2″S)-3,3′,3″-((nitrilotris(methylene))tris(benzo[b]thiophene-3,5-diyl))tris(2-((R)-pyrrolidin-3-yl)propanoic acid)] the IC50 was 3.22 nM. `O=C(O)[C@@H](Cc1cccc(CCN(CCc2cccc(C[C@H](C(=O)O)[C@H]3CCNC3)c2)CCc2cccc(C[C@H](C(=O)O)[C@H]3CCNC3)c2)c1)[C@H]1CCNC1` [Compound 65, (2S,2′S,2″S)-3,3′,3″-((nitrilotris(ethane-2,1-diyl))tris(benzene-3,1-diyl))tris(2-((R)-pyrrolidin-3-yl)propanoic acid)] was tested, and the IC50 was 0.87 nM. In the case of `O=C(O)[C@@H](Cc1ccc2occ(CCN(CCc3coc4ccc(C[C@H](C(=O)O)[C@H]5CCNC5)cc34)CCc3coc4ccc(C[C@H](C(=O)O)[C@H]5CCNC5)cc34)c2c1)[C@H]1CCNC1` [Compound 67, (2S,2′S,2″S)-3,3′,3″-((nitrilotris(ethane-2,1-diyl))tris(benzofuran-3,5-diyl))tris(2-((R)-pyrrolidin-3-yl)propanoic acid)], the IC50 is reported as 8.55 nM. `O=C(O)[C@@H](Cc1cccc(CCN(CCOc2cccc(C[C@H](C(=O)O)[C@H]3CCNC3)c2)CCc2cccc(C[C@H](C(=O)O)[C@H]3CCNC3)c2)c1)[C@H]1CCNC1` [Compound 71, (2S,2′S)-3,3′-((((2-(3-((S)-2-carboxy-2-((R)-pyrrolidin-3-yl)ethyl)phenoxy)ethyl)azanediyl)bis(ethane-2,1-diyl))bis(3,1-phenylene))bis(2-((R)-pyrrolidin-3-yl)propanoic acid)] gave an IC50 of 0.54 nM. In the case of `O=C(CN(CCOc1cccc(C[C@H](C(=O)O)[C@H]2CCNC2)c1)CC(=O)c1cccc(C[C@H](C(=O)O)[C@H]2CCNC2)c1)c1cccc(C[C@H](C(=O)O)[C@H]2CCNC2)c1` [Compound 80, (2S,2′S)-3,3′-((2,2′-((2-(3-((S)-2-carboxy-2-((R)-pyrrolidin-3-yl)ethyl)phenoxy)ethyl)azanediyl)bis(acetyl))bis(3,1-phenylene))bis(2-((R)-pyrrolidin-3-yl)propanoic acid)], the IC50 is reported as 2.31 nM. `O=C(O)[C@@H](Cc1cccc(CCN(CCc2cccc(C[C@H](C(=O)O)[C@H]3CCNC3)c2)C(=O)COc2cccc(C[C@H](C(=O)O)[C@H]3CCNC3)c2)c1)[C@H]1CCNC1` [Compound 81, (2S,2′S)-3,3′-((((2-(3-((S)-2-carboxy-2-((R)-pyrrolidin-3-yl)ethyl)phenoxy)acetyl)azanediyl)bis(ethane-2,1-diyl))bis(3,1-phenylene))bis(2-((R)-pyrrolidin-3-yl)propanoic acid)] showed an IC50 of 0.85 nM. `[2H]C([2H])(c1cccc(C[C@H](C(=O)O)[C@H]2CCNC2)c1)N(Cc1cccc(C[C@H](C(=O)O)[C@H]2CCNC2)c1)C([2H])([2H])c1cccc(C[C@H](C(=O)O)[C@H]2CCNC2)c1` [Compound 93, (2S,2′S)-3,3′-((((3-((S)-2-carboxy-2-((R)-pyrrolidin-3-yl)ethyl)benzyl)azanediyl)bis(methylene-d2))bis(3,1-phenylene))bis(2-((R)-pyrrolidin-3-yl)propanoic acid)] was tested, and the IC50 was 0.81 nM. For `[2H]C([2H])(c1cccc(C[C@H](C(=O)O)[C@H]2CCNC2)c1)N(Cc1cccc(C[C@H](C(=O)O)[C@H]2CCNC2)c1)Cc1cccc(C[C@H](C(=O)O)[C@H]2CCNC2)c1` [Compound 94, (2S,2′S)-3,3′-(((((3-((S)-2-carboxy-2-((R)-pyrrolidin-3-yl)ethyl)phenyl)methyl-d2)azanediyl)bis(methylene))bis(3,1-phenylene))bis(2-((R)-pyrrolidin-3-yl)propanoic acid)], the IC50 was 0.65 nM. `O=C(O)[C@@H](Cc1cccc(CCN(Cc2cccc(C[C@H](C(=O)O)[C@H]3CCNC3)c2)C(=O)c2cccc(C[C@H](C(=O)O)[C@H]3CCNC3)c2)c1)[C@H]1CCNC1` [Compound 99, (S)-3-(3-(2-(3-((S)-2-carboxy-2-((R)-pyrrolidin-3-yl)ethyl)-N-(3-((S)-2-carboxy-2-((R)-pyrrolidin-3-yl)ethyl)benzyl)benzamido)ethyl)phenyl)-2-((R)-pyrrolidin-3-yl)propanoic acid] gave an IC50 of 0.96 nM. `O=C(O)[C@@H](Cc1cc2c(CN(Cc3cccc4sc(C[C@H](C(=O)O)[C@H]5CCNC5)cc34)Cc3cccc4sc(C[C@H](C(=O)O)[C@H]5CCNC5)cc34)cccc2s1)[C@H]1CCNC1` [Compound 101, (2S,2′S,2″S)-3,3′,3″-((nitrilotris(methylene))tris(benzo[b]thiophene-4,2-diyl))tris(2-((R)-pyrrolidin-3-yl)propanoic acid)] gave an IC50 of 2.71 nM. `O=C(O)[C@@H](Cc1cc(CN(Cc2cc(C[C@H](C(=O)O)[C@H]3CCNC3)cc3ccoc23)Cc2cc(C[C@H](C(=O)O)[C@H]3CCNC3)cc3ccoc23)c2occc2c1)[C@H]1CCNC1` [Compound 102, (2S,2′S,2″S)-3,3′,3″-((nitrilotris(methylene))tris(benzofuran-7,5-diyl))tris(2-((R)-pyrrolidin-3-yl)propanoic acid)] was tested, and the IC50 was 0.74 nM. With `O=C(O)[C@@H](Cc1cc2ccc(CN(Cc3ccc4cc(C[C@H](C(=O)O)[C@H]5CCNC5)sc4c3)Cc3ccc4cc(C[C@H](C(=O)O)[C@H]5CCNC5)sc4c3)cc2s1)[C@H]1CCNC1` [Compound 103, (2S,2′S,2″S)-3,3′,3″-((nitrilotris(methylene))tris(benzo[b]thiophene-6,2-diyl))tris(2-((R)-pyrrolidin-3-yl)propanoic acid)] the IC50 was 2.11 nM.
